Data published in US5958407A, “Ileus treatment method” (The Regents of the Uinversity of California, priority 1998, dated 1999).
Several values for one entry are separate records, joined by “and”; a condition that tells them apart may be missing. Equal entries are not always repeated. Where two headings read alike, the source gives them in different places. No end group written: not given here.

Columns and labels:
[1] = biological target: T1, tryptase (Homo sapiens, UniProt Q15661); assay: Ca2+ response of myocytes to tryptase pre-incubated with inhibitor; type: cell-based
T1 sequence (Q15661 31-275): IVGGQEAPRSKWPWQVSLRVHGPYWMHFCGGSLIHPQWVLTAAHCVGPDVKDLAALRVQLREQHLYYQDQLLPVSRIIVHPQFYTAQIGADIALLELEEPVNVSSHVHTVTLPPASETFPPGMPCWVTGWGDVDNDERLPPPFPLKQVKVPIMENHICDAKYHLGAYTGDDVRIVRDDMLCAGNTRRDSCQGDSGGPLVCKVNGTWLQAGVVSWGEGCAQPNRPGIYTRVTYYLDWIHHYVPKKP
Method: (§1) Myocytes were incubated in physiological salt solution (PSS) with 2.5 μM Fura-2/AM for 20 min at 37° C. Fluorescence was measured in individual cells using an ICCD video camera (Stanford Photonics, Stanford, Calif.) and a video microscopy acquisition program (Axon Industries, Foster City, Calif.). Fluorescence was measured at 340 and 380 nm excitation and 510 nm emission. The ratio of the fluorescence at the two excitation wavelengths, which is proportional to the [Ca^2+ ]i, was calculated. Fresh cells were studied with each agonist and a minimum of 10 cells analyzed in 2-4 experiments on different days.

[2] = biological target: T1, tryptase; assay: Inhibition of the Ca2+ response of myocytes to HMC-1 mast cell filtrate; type: cell-based; parameters: HMC-1 human mast cells; endogenous in cells; host or cells: HMC-1 human mast cells, filtrate after degranulation with substance P
Method: (§2) Degranulation of HMC-1 cells (human mast cell line) with substance P was induced, and a filtrate for Ca^2+ responses in myocytes was assessed, to determine if mast cells release proteases that cleave and activate PAR-2.
as §1
HMC-1 human mast cells (300 μl of 7×10^6 /ml in PSS containing 25 μg/ml heparin) were incubated with 100 μM substance P for 5 min at room temperature to induce degranulation. The suspension was filtered and assayed for stimulation of Ca^2+ mobilization.

[3] = biological target: T1, tryptase; conditions: cited from earlier work
[4] = tested on: strips of rat proximal colon
[5] = tested on: mice with cecal manipulation; assay: GI transit in mice with surgically induced ileus; type: in vivo; conditions: 1 mg/kg orally 30 minutes prior to anesthesia
Method: GI transit was measured in fed mice by oral gavage pf 0.3 ml carmine red in methylcellulose. Whole GI transit time was defined as the appearance of the first red fecal pellet. Upper GI transit time was defined as the appearance as the percentage of the distance traveled along the small intestine by the marker in 30 minutes. Cecal manipulation for 5 minutes or skin incision alone was performed under halothane anesthesia and the marker administered 1 hour after surgery.
Skin incision alone had little effect on transit time.

[6] = biological target: T2, PAR-2 (Rattus norvegicus, UniProt Q63645); assay: Ca2+ mobilization by colonic myocytes (Fura-2); type: cell-based; conditions: for EC50: read-out: EC50, increase in [Ca2+]i
T2 construct: endogenous in cells; host or cells: cultured colonic myocytes (rat)
T2 sequence (Q63645 26-397): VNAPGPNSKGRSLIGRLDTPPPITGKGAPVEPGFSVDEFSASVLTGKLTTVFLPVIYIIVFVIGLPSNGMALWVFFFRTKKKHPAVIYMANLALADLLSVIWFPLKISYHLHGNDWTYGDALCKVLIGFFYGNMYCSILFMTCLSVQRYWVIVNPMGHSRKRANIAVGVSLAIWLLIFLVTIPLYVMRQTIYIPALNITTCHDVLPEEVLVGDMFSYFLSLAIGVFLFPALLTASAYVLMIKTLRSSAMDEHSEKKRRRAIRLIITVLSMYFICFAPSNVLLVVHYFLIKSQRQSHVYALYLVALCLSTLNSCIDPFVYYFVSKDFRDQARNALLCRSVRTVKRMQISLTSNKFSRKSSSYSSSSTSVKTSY
Method: Ac. Ca^2+ Mobilization by Colonic Myocytes. The activation of PAR-2 in myocytes was assessed by measuring Ca^2+ mobilization, as described in Example 3.
as §2, §1

[7] = tested on: trypsin; assay: Ca2+ response of myocytes to trypsin pre-incubated with inhibitor; type: cell-based; conditions: 1 nM trypsin; 10 mg/ml SBTI, 60 min at 37° C. before assay
Method: Ac. Ca^2+ Mobilization by Colonic Myocytes. The activation of PAR-2 in myocytes was assessed by measuring Ca^2+ mobilization, as described in Example 3. Trypsin and AP (SLIGRL-NH2) stimulated a prompt increase in [Ca^2+ ]i.
as §1

N=C(N)c1ccc2nc(Cc3nc4ccc(C(=N)N)cc4[nH]3)[nH]c2c1 [BABIM, bis(5-amidino-2-benzimidazolyl) methane]
Ca2+ response to tryptase after pre-incubation with inhibitor [1]: no Ca^2+ response
inhibition of the [Ca2+]i response to HMC-1 mast cell filtrate [2]: 46.5±1% and ~ 50%

CC(C)(C)c1ccc(OC(=O)[C@H]2CC[C@H](CNC(=N)N)CC2)cc1 [GMCHA-OPhBut, trans-4-guanidinomethylcyclohexane-carboxylic acid 4-tert butylphenyl ester]
concentrations that inhibit tryptase activity [3]: 1 to 100 µM

COC(=O)[C@@H](N)CCCNC(=N)N[N+](=O)[O-] [L-NAME, L-N^G -nitro arginine methyl ester]
effect of pre-incubation on the effects of trypsin and AP ([4]; 100 μM L-NAME for 15 min): did not prevent

CCCCC[C@H](O)/C=C/[C@H]1[C@H](O)CC(=O)[C@@H]1C/C=C\CCCC(=O)O [PGE2]
effect on colonic motility ([4]; 30 nM PGE2): inhibited colonic motility

COc1ccc2c(c1)c(CC(=O)O)c(C)n2C(=O)c1ccc(Cl)cc1 [indomethacin]
effect of pre-incubation on the response to trypsin and AP ([4]; 1 μM indomethacin for 15 min): had no effect

CN1CCC(=C2c3ccccc3CC(=O)c3sccc32)CC1 [ketotifen]
effect on inhibition of GI transit produced by abdominal surgery ([5]; cecal manipulation): partially reversed
effect on transit time in unoperated animals ([5]; unoperated): little effect

CC(=O)N[C@@H](CC(C)C)C(=O)N[C@@H](CC(C)C)C(=O)N[C@H](C=O)CCCNC(=N)N [leupeptin]
Ca2+ response to tryptase after pre-incubation with inhibitor ([1]; 40 nM tryptase, 1 μM inhibitor, 5 min at room temperature before assay): no Ca^2+ response
inhibition of the [Ca2+]i response to HMC-1 mast cell filtrate ([2]; myocytes, filtrate of HMC-1 cells degranulated with substance P): 46.5±4%

NC1=N[C@H](O)[C@H]2[C@H]3O[C@]4(O)O[C@@H]([C@@H](O)[C@@]2(N1)[C@@H]4O)[C@]3(O)CO [tetrodotoxin]
effect on amplitude and frequency of contractions [4]: immediate and sustained increase

HOE-140
effect on bradykinin-induced inhibition of spontaneous contractions ([4]; 100 nM bradykinin, pre-incubation with 100 nM HOE-140 for 5 min): abolished
effect on the inhibition of colonic motility by trypsin and AP ([4]; HOE-140): had no effect

RPPGFSPFR [bradykinin]
effect on spontaneous contractions ([4]; 100 nM bradykinin): marked inhibition of spontaneous contractions

SLIGRL-NH2 [AP, SLIGRL-NH2]
EC50 ([6]; colonic myocytes): ~1000 nM

substance P: used to induce degranulation of HMC-1 mast cells
Ca2+ mobilization in myocytes ([6]; 100 μM substance P): did not stimulate

tryptase: mast cell protease released upon degranulation
effect on amplitude of spontaneous contractions ([4]; tryptase at concentrations of up to 90 nM): did not alter the amplitude of spontaneous contractions
EC50 ([6]; colonic myocytes): ~100 nM
fold less potent than trypsin (Ca2+ mobilization) ([6]; colonic myocytes, tryptase vs trypsin): 100 fold

B1: SBTI: SBTI, pre-incubated with trypsin before assay; abbreviation not expanded (protein, UniProt P01070 25-205, looked up)
Trypsin inhibitor A: DFVLDNEGNPLENGGTYYILSDITAFGGIRAAPTGNERCPLTVVQSRNELDKGIGTIISSPYRIRFIAEGHPLSLKFDSFAVIMLCVGIPTEWSVVEDLPEGPAVKIGENKDAMDGWFRLERVSDDEFNNYKLVFCPQQAEDDKCGDIGISIDHDDGTRRLVVSKNKPLVVQFQKLDKESL
Ca2+ response to trypsin after pre-incubation with inhibitor [7]: no Ca^2+ response

B2: trypsin: protease that cleaves and activates PAR-2 (protein, UniProt P00760 24-246, looked up)
Serine protease 1: IVGGYTCGANTVPYQVSLNSGYHFCGGSLINSQWVVSAAHCYKSGIQVRLGEDNINVVEGNEQFISASKSIVHPSYNSNTLNNDIMLIKLKSAASLNSRVASISLPTSCASAGTQCLISGWGNTKSSGTSYPDVLKCLKAPILSDSSCKSAYPGQITSNMFCAGYLEGGKDSCQGDSGGPVVCSGKLQGIVSWGSGCAQKNKPGVYTKVCNYVSWIKQTIASN
effect on motility of tetrodotoxin-treated tissues [4]: inhibited this elevated motility
fold more potent than AP (colonic motility) [4]: 10 fold
time to recovery of spontaneous activity after washing ([4]; 1 μM trypsin for 5 min, then washed extensively): > 6 h
inhibition of mean amplitude at highest concentration ([4]; 3 μM trypsin): 60%
threshold for inhibition of mean amplitude of spontaneous contractions ([4]; colon strips (mucosa plus muscle)): 300 nM
effect on spontaneous contractions in the absence of the mucosa ([4]; colonic strips with mucosa removed): inhibited spontaneous contractions
EC50 ([4]; read-out: EC50, reduction in mean amplitude of spontaneous contractions, colon strips (mucosa plus muscle)): ~500 nM
delay before inhibition of motility ([4]; trypsin at 1 μM, AP concentration not stated): 31 ± 5 s
fold more potent than AP (Ca2+ mobilization) [6]: 1,000 fold
EC50 ([6]; colonic myocytes): ~1 nM
